Measured values from patent US7820692B2, “Tetrahydro isoquinoline derivatives, preparation methods and medicinal uses thereof” (China Pharmaceutical University, priority 2006, dated 2010).
Entries after “also recorded” stand apart in the source; their conditions may differ. Marks after values point to notes of the source that are not given here.

Assays:
[1] = target: κ-opioid receptor (Homo sapiens, UniProt P41145); assay: Radioligand receptor binding assay, competition with [3H]diprenorphine, κ-receptor; conditions: for Ki: Ki=IC50/(1+[L]/Kd); for dpm: competition binding with κ-receptor, [3H]diprenorphine 0.5 nM; for dpm / inhibition at 10 µM / inhibition rate %: compound at 1 × 10^−5 M; for IC50: competition binding, κ-opioid receptor; for inhibition at 10 µM: read-out: inhibition rate %
Method: (§1) The experiment test tubes are divided into total binding tubes and non-specific binding tubes, and several groups of sample tubes added with competitive ligand in different concentrations are provided. The total binding tube is added with expressed membrane receptor protein equivalent to 20 μg and [^3H] diprenorphine (0.5 nM) (1.44 Pbq/mol broad spectrum opioid antagonist, Amersham), the corresponding non-specific binding tubes are further added with 1 μM Naloxone (broad spectrum opioid antagonist, Sigma), the sample tubes are added with different concentrations compounds which are to be screened, the final volume is regulated to 100 μl with 50 mM Tris(Amresco)-HCl (pH 7.4). Incubation is performed at 30° C. for 30 min, and the tubes are placed into ice water to stop reaction. Negative pressure filter is performed in Millipore sample collector via GF/(Whatman) glass fiber filter paper. Ice cold 50 mM Tris-HCl (pH 7.4) is used to wash the filter paper for three times, each for 4 ml; Dry the filter paper and place it in 0.5 ml Eppendorff tube, and add 0.5 ml of lipophilic scintillator liquid (Reagent No. 1 Factory Of Shanghai Chemical Reagent Co. Ltd). Beckman LS 6500 multifunctional liquid scintillation counter is adopted for measuring radiation intensity, calculating inhibition rate is calculated, each concentration has three duplicated tubes, and each tube is independently tested for 3-4 times.
(§2) IC50 value is calculated by software Prism 4.0.
(§3) Ki=IC50/(1+[L]/Kd), ([L] is the concentration of added marked ligand, and Kd is equilibrium dissociation constant of radioligand).

[2] = target: μ-opioid receptor (Homo sapiens, UniProt P35372); assay: Radioligand receptor binding assay, competition with [3H]diprenorphine, μ-receptor; conditions: for inhibition at 1 µM: read-out: inhibition rate of medicine at 1 × 10^−6 M (μ); for Ki: Ki=IC50/(1+[L]/Kd); for IC50: competition binding, μ-opioid receptor; for receptor selectivity μKi/κKi: ratio of μ Ki to κ Ki
Method: as §1, §2, §3

[3] = test system: Kuming mice; assay: Mice hot plate method analgesic test; type: in vivo; conditions: for Analgesic experiment result, Mice hot plate method: subcutaneous injection, hot plate 55° C., value with range in brackets
Method: (§4) Analgesic efficacy of the subject compound is determined by using model derived from mice hot plate method and mice writhing method (Methodology of Pharmacological Experiment, edition II, Xu Shuyun, People Medical Publishing Company, 1991).
Experiment Animal: Kuming Mice (Female, 18-22 g)
(§5) • (1) Selection of normal mice: the test room temperature is controlled at about 22° C., temperature of the hot plate of an pain threshold dector is regulated to 55° C., the duration from the moment the mice is put on the hot plate to the moment the mice start to lick the hind paw is recorded as pain threshold value, the test is repeated twice at interval of 20 min, and the mice with average pain threshold value no more than 30 sec is qualified mice. • (2) Experimental mice: the qualified mice are randomly divided into groups each having 10 mice, and subjected to subcutaneous injection. • Each group is tested for mice pain response time once every 5, 15, 30, 50, and 60 minute after administration, and the medicine is believed to be effective which response time beyond 1 min. • Mice Writhing Assay • I-6 is administered via subcutaneous injection, then 0.6% acetic acid solution (10 ml/kg) is administered after 30 min, and the number of the mice writhing within 15 min is recorded. 3.

[4] = test system: Kuming mice; assay: Mice writhing assay (acetic acid) analgesic test; type: in vivo; conditions: subcutaneous injection, 0.6% acetic acid after 30 min, writhing within 15 min
Method: as §4, §5

[5] = test system: Kuming mice; assay: Analgesic tolerance test (hot plate, 9 days administration); type: in vivo; conditions: morphine 7 mg/kg subcutaneous injection
Method: Kuming mice (18-20 g, male) are selected for test, and divided into physiological saline group, morphine group, and I-6 group.
physiological saline group: subcutaneous administration, 0.2 mL for each mice.
Morphine group: Day 1-3, subcutaneous injection, 7 mg/kg • Day 4-7, subcutaneous injection, 10 mg/kg • Day 8-9, subcutaneous injection, 15 mg/kg I-6 group: Day 1-9, subcutaneous injection, 25 μg/kg
Hot plate method in mice is adopted as model, administration lasts for 9 days, analgesic effects before and after administration are determined every day, and if analgesic effect is attenuated after continuous administration of 3 days, the drug concentration will be increased, and if analgesic effect don't change, the drug concentration will not be changed.

[6] = 1 × 10^−6 M, printed in the IC50 (M) μ column

| Structure (SMILES) | Ki [1] [nM] | dpm [1] [dpm] | IC50 [1] [nM] | inhibition at 10 µM [1] [%] | inhibition rate % [1] [%] | further results |
| --- | --- | --- | --- | --- | --- | --- |
| O=C1CC(C(=O)N2CCc3ccccc3C2CN2CCCC2)c2ccccc21 (centres unmarked) [I-1, 1-(pyrrolidine-1-methyl)-2-(2,3-dihydro-inden-3-keto-1-carbonyl)-1,2,3,4-tetrahydroisoquinoline] | 0.438 | 212.91 | 1.53 | 100 | – | inhibition at 1 µM [2, 6]: 18.7%; analgesic efficacy compared with morphine ([3]; mice hot plate method and mice writhing method): powerful analgesic efficacy; Analgesic experiment result, Mice hot plate method [3]: 44.147(25.134-77.545) ug/kg; Analgesic experiment result, Mice writhing assay [4]: 26.303(16.807-41.165) ug/kg |
| COc1cc2c(cc1OC)C(C(=O)N1CCc3ccccc3C1CN1CCCC1)CC2=O (centres unmarked) [I-5, 1-(pyrrolidine-1-methyl)-2-(5,6-dimethoxy-2,3-dihydro-inden-3-keto-1-carbonyl)-1,2,3,4-tetrahydroisoquinoline] | 1.34 | 260.58 | 4.69 | 99.5 | – | Ki [2]: 106 nM; IC50 [2]: 318 nM; receptor selectivity μKi/κKi [2]: 79 |
| COc1ccc2c(c1)C(C(=O)N1CCc3ccccc3C1CN1CCCC1)CC2=O (centres unmarked) [I-13, 1-(pyrrolidine-1-methyl)-2-(6-methoxy-2,3-dihydro-inden-3-keto-1-carbonyl)-1,2,3,4-tetrahydroisoquinoline] | 0.909 | 211.54 | 3.18 | 100 | – | Ki [2]: 133 nM; IC50 [2]: 399 nM; receptor selectivity μKi/κKi [2]: 146 |
| COc1ccc2c(c1)C(CN1CCCC1)N(C(=O)C1CC(=O)c3ccccc31)CC2 (centres unmarked) [I-14, 7-methoxy-1-(pyrrolidine-1-methyl)-2-(2,3-dihydro-inden-3-keto-1-carbonyl)-1,2,3,4-tetrahydroisoquinoline] | 270 | 972.69 | 912 | 77.3 | – | inhibition at 1 µM [2, 6]: 14.6% |
| COc1ccc2c(c1)C(CN1CCCC1)N(C(=O)C1CC(=O)c3cc(OC)c(OC)cc31)CC2 (centres unmarked) [I-15, 7-methoxy-1-(pyrrolidine-1-methyl)-2-(5,6-dimethoxy-2,3-dihydro-inden-3-keto-1-carbonyl)-1,2,3,4-tetrahydroisoquinoline] | – | 820.16 | – | – | 82.3 | inhibition rate of medicine at 1 × 10^−6 M (μ) [2, 6]: 11.7% (^−6)^a |
| COc1ccc2c(c1)C(CN1CCCC1)N(C(=O)C1CC(=O)c3ccc(Cl)cc31)CC2 (centres unmarked) [I-18, 7-methoxy-1-(pyrrolidine-1-methyl)-2-(6-chloro-2,3-dihydro-inden-3-keto-1-carbonyl)-1,2,3,4-tetrahydroisoquinoline] | 17.1 | 281.00 | 59.9 | 100 | – | inhibition at 1 µM [2, 6]: 14%; melting point: 151 to 153 °C |
| COc1ccc2c(c1)C(C(=O)N1CCc3ccc(OC)cc3C1CN1CCCC1)CC2=O (centres unmarked) [I-19, 7-methoxy-1-(pyrrolidine-1-methyl)-2-(6-methoxy-2,3-dihydro-inden-3-keto-1-carbonyl)-1,2,3,4-tetrahydroisoquinoline] | – | 799.91 | – | – | 82.9 | – |
| COc1cc2c(cc1OC)C(CN1CCCC1)N(C(=O)C1CC(=O)c3ccccc31)CC2 (centres unmarked) [I-26, 6,7-dimethoxy-1-(pyrrolidine-1-methyl)-2-(2,3-dihydro-inden-3-keto-1-carbonyl)-1,2,3,4-tetrahydroisoquinoline] | – | 1883.77 | – | – | 51.9 | – |
| COc1cc2c(cc1OC)C(CN1CCCC1)N(C(=O)C1CC(=O)c3cc(OC)c(OC)cc31)CC2 (centres unmarked) [I-27, 6,7-dimethoxy-1-(pyrrolidine-1-methyl)-2-(5,6-dimethoxy-2,3-dihydro-inden-3-keto-1-carbonyl)-1,2,3,4-tetrahydroisoquinoline] | – | 5257.44 | – | – | 0 | – |
| COc1cc2c(cc1OC)C(CN1CCCC1)N(C(=O)C1CC(=O)c3ccc(Cl)cc31)CC2 (centres unmarked) [I-30, 6,7-dimethoxy-1-(pyrrolidine-1-methyl)-2-(6-chloro-2,3-dihydro-inden-3-keto-1-carbonyl)-1,2,3,4-tetrahydroisoquinoline] | – | 2269.71 | – | – | 40.6 | – |
| COc1ccc2c(c1)C(C(=O)N1CCc3cc(OC)c(OC)cc3C1CN1CCCC1)CC2=O (centres unmarked) [I-31, 6,7-dimethoxy-1-(pyrrolidine-1-methyl)-2-(6-methoxy-2,3-dihydro-inden-3-keto-1-carbonyl)-1,2,3,4-tetrahydroisoquinoline] | – | 3271.85 | – | – | 11.2 | – |
| CN1CC[C@]23c4c5ccc(O)c4O[C@H]2[C@@H](O)C=C[C@H]3[C@H]1C5 [Morphine, morphine] | – | – | – | – | – | Analgesic experiment result, Mice hot plate method [3]: 6.949(5.682-8.500) mg/kg; Analgesic experiment result, Mice writhing assay [4]: 0.840(0.558-1.265) mg/kg; analgesic effect on continuous administration ([5]; Day 3): no significant analgesic effect; also recorded: tolerance and efficacy of zero; analgesic effect on continuous administration ([5]; from Day 2): attenuated analgesic effect from Day 2 |
